Source: patent publication US9796674B2, “Benzyl urea derivatives for activating TGF-beta signaling” (THE BOARD OF TRUSTEES OF THE LELAND STANFORD JUNIOR …, priority 2013, dated 2017)
Entries after “also recorded” stand apart in the source; their conditions may differ.

Key:
B103 neuroblastoma cells = experiment: B103 live/dead cell assay with Aβ; type: cell-based, rat; conditions: for cell survival, protection relative to TGF-β1: percentage of live cells / percentage of rescue
Method: SRI-11381 is neuroprotective in vitro: To determine if the TGF-β-inducing capacity of SRI-011381 would translate into biologically beneficial effects, its neuroprotective potential was tested in B103 rat neuroblastoma cells and primary mouse neurons derived from E16 forebrains. B103 neuroblastoma cells were cultured in 24-well plates and exposed to an oligomeric preparation of Aβ together with compounds or recombinant TGF-β.
FIGS. 3A-3H illustrate that SRI-011381 protects cultured neurons from Aβ toxicity. B103 neuroblastoma cells were incubated with Aβ for 24 h. The compounds and TGF-β were added 2 h before Aβ. Following incubations live and dead cells were assessed with calcein-acetoxymethylester (CAM) and SYTOX Orange (Invitrogen), respectively.
B103 neuroblastoma cells: B103 neuroblastoma cells were cultured in Dulbecco's modified Eagle's medium containing 10% fetal calf serum and 1% v/v penicillin/streptomycin (Invitrogen) in a 5% CO2: 95% air atmosphere. 10^4 cells/well were seeded onto 24 well plates and cultured for 24 h before Aβ was added. The compounds and TGF-β were added 2 h before Aβ. Following a 24 h incubation with Aβ, live and dead cells were assessed using calcein-acetoxymethylester (CAM) and SYTOX Orange (Invitrogen), respectively. AM is a membrane-permeable, fluorogenic esterase substrate that is hydrolyzed intracellularly to a green fluorescent product (calcein) in live cells. SYTOX Orange is a high-affinity nucleic acid stain that easily penetrates cells with compromised plasma membranes and yet will not cross the membranes of live cells. After incubation with SYTOX Orange, the nucleic acids of dead cells fluoresce bright orange. […] Five fields were randomly selected from each well and the cell numbers were analyzed by ImageJ (NIH) in a blinded fashion.

[1] = Metabolic stability in human liver microsomes; type: in vitro ADME
Method: Metabolic Stability: SRI-011381 (1 and 10 μM) was incubated with human liver microsomes (pooled from several donors) and cofactors.

TGF-β signaling [2] = experiment: F11 SBE-SEAP reporter cell assay; type: cell-based, mouse; conditions: F11 SBE-SEAP reporter cell line
Text: In another aspect, methods are provided for treating or preventing the progression of a disease or condition characterized by a reduction in TGF-β signaling. One category of such diseases or conditions is neurodegenerative disorders. One example is Alzheimer's disease (AD), or another disease characterized by the deposition of amyloid plaques and overall accumulation of Aβ in the brain. Experiments performed in support of the present compositions and methods are described, below. • TGF-β reporter gene and cells for screening compounds: An in vitro screening method was developed to identify small-molecule chemical compounds with TGF-β1-like bioactivity. The method utilized a fusion gene consisting of the luciferase or secreted alkaline phosphatase (SEAP) reporter gene under control of the TGF-β responsive Smad-binding element (SBE) minimal promoter sequence, as shown in FIGS. 1A and 1B. To screen for compounds that mimic TGF-β bioactivity, reporter cell lines were prepared by stably-integrating SBE-SEAP into C6 astrocytoma cells, a primary astrocyte line derived from tgfb1^−/− mice, a mouse embryonic fibroblast cell line derived from tgfb1^−/− mice (MFB-F11), and NG108-15 neuroblastoma cells. Such cell lines remained stable for at least 20 passages. Use of a tgfb1^−/− genetic background avoids interference by the […] tgfb1 gene. • Initial compound screening: A library with 5,000 chemically diverse small molecules (average Mr 200 Da) was obtained from Comgenex LLC (South San Francisco, Calif.). […]
The compounds were all tested in the F11 cell activity assay (fibroblast stably transfected with SBE-SEAP construct). […] Compounds with promising activity were evaluated using tier 1 assays such as permeability assays to measure blood-brain barrier transport, metabolic stability assays, and solubility assays. […]

TGF-β signaling [3] = experiment: Bioluminescence in SBE-luc reporter mice; type: in vivo, mouse; conditions: brain/CNS bioluminescence
Method: The most promising compounds out of these screens were tested for their neuroprotective potential in B103 rat neuroblastoma cells and primary mouse neurons derived from E16 forebrains. Compounds were also tested for their capacity to reduce varicosities and tortuosity in primary mouse neurons. Accordingly, novel neuroprotectant small molecules have been identified that are as potent or better than TGF-β. Importantly, they fulfilled the critical neuroprotective properties in neuronal cell lines and primary hippocampal mouse neurons. • Compounds based on the 11H core: The present compositions and methods include salts of the active compounds and formulations, in particular pharmaceutically acceptable compositions for administration to an animal or human subject and containing active compounds. 129 analogs or derivatives of 11H were screened by a cell-based assay for their ability to increase TGF-β activity, i.e. to act as a TGF agonist. In particular, one compound (a) designated as SRI-011381 (381) was identified as especially advantageous, although active derivatives thereof are contemplated and have been identified. • Effects of TGF-β analogs in vitro: Some of the small-molecule TGF-β agonist compounds were tested for neuroprotection activity and toxicity in vitro (cell culture). In addition, the mechanism of action of the agonists was explored using cells with different genetic backgrounds with respect to protein of the […] signaling pathway. • Animal studies: Transgenic mice harboring the SBE-luc reporter gene were generated and used to test the derivatives of compound 11H in vivo. These “reporter mice” mice express SBE-luc (i.e., “the transgene”) in all cells of the body. Intraperitoneal injection of luciferin into SBE-luc-expressing mice produces bioluminescence generated by luciferase and photons penetrating the skull can be imaged using sensitive camera systems.
SBE-luciferase transgenic mice: Two-month old SBE-luciferase transgenic mice receive different concentrations of a test compound either s.q., ip., or orally by gavage. […] Following administration of the test or control compounds, mice are injected with luciferin ip. At, for example, 2, 8, and 16 hours following injection of luciferin, the mice are imaged to detect bioluminescence as described above. Brains may be harvested 16 hours following test compound injection, and may be divided sagittally. For example, one hemi-brain can be homogenized in luciferase assay buffer for measurement of reporter gene activation, while the other hemi-brain can be frozen at −70° C. for future study, including sectioning into individual brain regions

## O=C(NC1CCCCC1)N(Cc1ccccc1)CC1CCNCC1 [SRI-011381, 1-Benzyl-3-cyclohexyl-1-(piperidin-4-ylmethyl)urea]
B103 neuroblastoma cells
  cell survival, protection relative to TGF-β1: better protection than TGF-β1
[1]; 1 and 10 μM, after 60 min
  compound unchanged: Approximately 80%
TGF-β signaling [2]
  activity in the reporter cell assay: showed activity
TGF-β signaling [2]; listed as 381
  activity in the reporter cell assay: activates TGF-β signaling in reporter cell line
TGF-β signaling [3]
  activation of TGF-β signaling in SBE-luc reporter mice: penetrate into the CNS and activate TGF-β signaling; also recorded: bioavailable in the CNS and activate TGF-β signaling; also recorded: activates TGF-β signaling in the brain
TGF-β signaling [3]; listed as 381
  activation of TGF-β signaling in SBE-luc reporter mice: activates TGF-β signaling in reporter mice

## O=C(NC1CCCCC1)N(C/C=C/c1ccc(F)cc1)CC1CCNCC1 [SRI-011382]
B103 neuroblastoma cells; 1 μM, 5 μM Aβ
  cell survival, protection: slightly lower protection
B103 neuroblastoma cells; 3 μM, TGF-β 1 ng/ml
  cell survival, protection relative to TGF-β: better protection than TGF-β
B103 neuroblastoma cells; Aβ 24 h, added 2 h before Aβ
  Aβ-induced cell death: inhibit Aβ-induced cell death
B103 neuroblastoma cells
  cell survival, protection relative to TGF-β1: better protection than TGF-β1
[1]
  metabolic stability: desirable level of metabolic stability
TGF-β signaling [2]
  activity in the reporter cell assay: superior activity
TGF-β signaling [3]
  activation of TGF-β signaling in SBE-luc reporter mice: bioavailable in the CNS and activate TGF-β signaling
